In patent US20250281499A1, “FUSED AMINO PYRIMIDINE COMPOUNDS FOR TREATMENT OF NEUROPATHIC AND NEURO-INFLAMMATORY PAIN” (Ovid Therapeutics Inc., priority 2024, published 2025):

Legend:
KCC2 [1] = target: T1, KCC2 (Homo sapiens, UniProt Q9H2X9); assay: FLIPR thallium (Tl+) flux assay in HEK-293 cells expressing KCC2; type: cell-based; conditions: saturating concentration of 3 μM, 1% BCD vehicle
T1 construct: expressed in transfected cells; host or cells: HEK-293 (ATCC CRL-1573), Lipofectamine 2000, used 48-72 h after transfection
T1 sequence (Q9H2X9 1-1116 isoform Q9H2X9-2): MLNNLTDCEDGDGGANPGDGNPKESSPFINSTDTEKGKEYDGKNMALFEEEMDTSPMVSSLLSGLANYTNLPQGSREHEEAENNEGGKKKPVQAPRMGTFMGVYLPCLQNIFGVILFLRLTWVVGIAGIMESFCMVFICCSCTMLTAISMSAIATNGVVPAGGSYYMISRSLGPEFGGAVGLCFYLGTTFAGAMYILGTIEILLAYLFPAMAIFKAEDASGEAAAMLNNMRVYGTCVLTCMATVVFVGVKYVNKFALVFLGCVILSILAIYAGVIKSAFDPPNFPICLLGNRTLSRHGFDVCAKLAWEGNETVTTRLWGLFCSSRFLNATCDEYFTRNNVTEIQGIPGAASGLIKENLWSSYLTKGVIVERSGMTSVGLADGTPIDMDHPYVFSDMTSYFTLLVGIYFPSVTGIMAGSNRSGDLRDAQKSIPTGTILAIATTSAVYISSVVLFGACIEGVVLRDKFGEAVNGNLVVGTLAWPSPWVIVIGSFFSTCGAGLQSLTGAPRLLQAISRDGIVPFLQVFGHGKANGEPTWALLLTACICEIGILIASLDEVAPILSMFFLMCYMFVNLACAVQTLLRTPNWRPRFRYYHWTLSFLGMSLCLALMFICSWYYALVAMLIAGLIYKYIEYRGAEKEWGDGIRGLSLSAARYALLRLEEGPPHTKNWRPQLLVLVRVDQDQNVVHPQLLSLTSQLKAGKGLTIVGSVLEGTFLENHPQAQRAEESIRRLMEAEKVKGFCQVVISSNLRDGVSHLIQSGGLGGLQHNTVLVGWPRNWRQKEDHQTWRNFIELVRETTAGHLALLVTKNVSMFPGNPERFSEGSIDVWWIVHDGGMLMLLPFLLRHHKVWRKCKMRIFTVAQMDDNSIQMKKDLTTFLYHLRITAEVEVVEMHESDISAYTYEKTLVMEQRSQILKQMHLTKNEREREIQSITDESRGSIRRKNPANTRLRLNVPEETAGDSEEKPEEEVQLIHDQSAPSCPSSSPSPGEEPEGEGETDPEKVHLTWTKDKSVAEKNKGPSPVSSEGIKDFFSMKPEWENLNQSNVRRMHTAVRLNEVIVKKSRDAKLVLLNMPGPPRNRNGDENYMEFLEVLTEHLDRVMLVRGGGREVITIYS
Method: A multi-tiered high-throughput screening assay was used, leveraging a proprietary library of 1.3 million small molecule compounds from AstraZeneca (Cambridge, UK) to identify chemical entities capable of activating KCC2. A single point concentration of 30 μM was used to identify potassium flux using an established thallium (TI+) influx FLIPR assay as the primary read out in HEK-293 cells overexpressing KCC2 (Cardarelli et al., Nat. Med. 23, 1394-1396 (2017); Conway et al., J Biol Chem 292, 21253-21263 (2017); Lee et al., 2022, supra).
Cell Culture and biotinylation. […]
FLIPR TI Flux assay. HEK-293 cells were washed with HBSS, and then incubated with loading buffer containing TI sensitive fluorescent dye (https://www.moleculardevices.com), 20 μM bumetanide 20 μM ouabain and 2.5 mM probenecid for 1 h at room temperature (RT) under control conditions or with drugs in the dark using a FlexStation 3 microplate reader (Molecular Devices) and imaged […] for 30 min. Stimulus buffer was added containing 5 mM K^+/0.5 mM Tl^+ and cells were imaged every 1.5 over a 190 second time course The initial rate Tl^+ uptake (Relative Fluorescence Units (RFU) per second) was determined following addition of the stimulus buffer as outlined previously (Conway et al., 2017, supra) (Lee et al., 2022, supra). […]

KCC2 [2] = target: T1, KCC2; assay: Cell surface biotinylation of KCC2 in HEK-293 cells; type: cell-based; conditions: 15 min
Method: Cell Culture and biotinylation. HEK-293 cells were purchased from ATCC (CRL-1573) and transfected with human KCC2 and GFP expression plasmids using Lipofectamine 2000. Cells were utilized for experimentation 48-72 h following transfection. Cells were biotinylated at 4° C. using NHS-Biotin. Following lysis and purification on immobilized avidin beads, cell surface and total fractions were subject to immunoblotting as outlined previously (Conway et al., 2017, supra).
The reliability of the biotinylation procedure was assessed via immunoblotting with antibodies against the cytosolic protein actin. Actin was present in the total lysates but was absent from the surface fractions (FIG. 2C).

Q: `C[C@@H]1CN(c2nc3c(c(Nc4ccc(C5CCCCC5)cc4)n2)COC3)CCO1` [Compound A, (R)—N-(4-cyclohexylphenyl)-2-(2-methylmorpholino)-5,7-dihydrofuro[3,4-d]pyrimidin-4-amine] was tested. Which “maximum potentiation of KCC2” value (KCC2 [1]) did it give?
A: 90%

Q: What about the “level of KCC2 on the plasma membrane (surface/total)” value (KCC2 [2]; 0.3 μM) of the same compound?
A: 94.5 ±8.4 % of control

Q: And the “level of KCC2 on the plasma membrane (surface/total)” value (KCC2 [2]; 3 μM)?
A: 104.7±8.4 % of control
